Target: bovine cardiac myofibrils (full-length cardiac myosin ATPase in the native sarcomere) (Bos taurus (Bovine), UniProt Q9BE39)
Assay: Skinned bovine cardiac myofibril ATPase assay (PK/LDH-coupled)
Format: biochemical
Settings: Ca2+ activating to 75% of maximal rate; for CDMF75 IC15: concentration giving 15% inhibition; for IC50: read-out: CDMF75 IC50
How it was run: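 Triton-skinned bovine left-ventricle myofibrils (1 mg/mL) in PM 12 buffer (12 mM PIPES, 2 mM MgCl2, pH 6.8) with 50 μM ATP, 0.6 mM EGTA and CaCl2 set for 50% or 75% activation. Steady-state ATPase inhibition followed by PK/LDH-coupled NADH oxidation at 340 nm.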

bovine cardiac myofibrils (full-length cardiac myosin ATPase in the native sarcomere), sequence (Q9BE39 whole entry): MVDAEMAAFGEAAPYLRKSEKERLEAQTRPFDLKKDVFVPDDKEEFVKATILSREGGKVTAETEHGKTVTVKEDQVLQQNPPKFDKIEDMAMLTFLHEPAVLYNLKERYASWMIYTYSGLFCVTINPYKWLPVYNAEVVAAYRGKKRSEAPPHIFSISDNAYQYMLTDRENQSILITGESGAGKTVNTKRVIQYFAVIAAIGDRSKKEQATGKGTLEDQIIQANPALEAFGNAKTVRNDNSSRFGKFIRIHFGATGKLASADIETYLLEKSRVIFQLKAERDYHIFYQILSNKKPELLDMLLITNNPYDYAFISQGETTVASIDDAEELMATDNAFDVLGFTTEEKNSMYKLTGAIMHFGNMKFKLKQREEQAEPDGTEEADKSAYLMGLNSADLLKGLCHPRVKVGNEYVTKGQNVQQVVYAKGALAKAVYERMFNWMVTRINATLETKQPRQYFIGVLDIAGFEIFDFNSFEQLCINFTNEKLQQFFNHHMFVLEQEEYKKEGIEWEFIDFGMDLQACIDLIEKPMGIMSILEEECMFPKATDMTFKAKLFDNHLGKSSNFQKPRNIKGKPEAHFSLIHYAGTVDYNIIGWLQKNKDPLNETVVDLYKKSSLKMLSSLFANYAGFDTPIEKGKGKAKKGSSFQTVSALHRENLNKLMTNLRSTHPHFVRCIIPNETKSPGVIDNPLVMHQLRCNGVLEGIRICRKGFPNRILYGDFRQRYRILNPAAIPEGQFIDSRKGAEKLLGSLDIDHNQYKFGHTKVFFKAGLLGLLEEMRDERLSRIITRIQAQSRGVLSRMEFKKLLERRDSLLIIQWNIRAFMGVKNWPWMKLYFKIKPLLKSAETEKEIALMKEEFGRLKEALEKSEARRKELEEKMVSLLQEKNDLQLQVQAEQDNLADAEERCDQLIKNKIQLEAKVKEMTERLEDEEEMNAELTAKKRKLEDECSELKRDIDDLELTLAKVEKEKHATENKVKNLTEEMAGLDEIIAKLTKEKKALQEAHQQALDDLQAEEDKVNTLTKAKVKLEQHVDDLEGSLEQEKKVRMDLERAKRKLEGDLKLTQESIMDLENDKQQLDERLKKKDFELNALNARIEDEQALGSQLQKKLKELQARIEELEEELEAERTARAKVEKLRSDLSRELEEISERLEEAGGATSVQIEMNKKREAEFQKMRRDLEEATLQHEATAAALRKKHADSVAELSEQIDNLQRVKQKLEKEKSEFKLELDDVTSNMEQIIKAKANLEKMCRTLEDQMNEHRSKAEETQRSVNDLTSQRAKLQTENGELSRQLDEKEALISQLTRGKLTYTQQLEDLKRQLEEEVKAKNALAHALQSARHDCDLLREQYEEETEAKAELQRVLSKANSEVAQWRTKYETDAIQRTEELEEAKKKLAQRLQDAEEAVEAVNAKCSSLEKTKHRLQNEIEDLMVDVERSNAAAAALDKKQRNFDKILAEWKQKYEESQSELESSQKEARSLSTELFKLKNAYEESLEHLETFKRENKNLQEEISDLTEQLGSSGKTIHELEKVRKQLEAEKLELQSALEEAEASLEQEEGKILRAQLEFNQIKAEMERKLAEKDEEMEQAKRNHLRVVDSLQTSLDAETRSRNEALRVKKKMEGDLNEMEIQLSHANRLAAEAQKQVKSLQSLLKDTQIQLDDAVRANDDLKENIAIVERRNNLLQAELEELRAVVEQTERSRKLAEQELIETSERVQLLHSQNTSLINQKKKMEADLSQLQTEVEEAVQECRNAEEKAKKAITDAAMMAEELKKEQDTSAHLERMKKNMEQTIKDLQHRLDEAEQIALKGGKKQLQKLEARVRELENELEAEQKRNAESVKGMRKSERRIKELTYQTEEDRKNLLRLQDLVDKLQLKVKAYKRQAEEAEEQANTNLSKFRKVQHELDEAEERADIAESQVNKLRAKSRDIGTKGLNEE
bovine cardiac myofibrils (full-length cardiac myosin ATPase in the native sarcomere), sequence (P85100 whole entry partner): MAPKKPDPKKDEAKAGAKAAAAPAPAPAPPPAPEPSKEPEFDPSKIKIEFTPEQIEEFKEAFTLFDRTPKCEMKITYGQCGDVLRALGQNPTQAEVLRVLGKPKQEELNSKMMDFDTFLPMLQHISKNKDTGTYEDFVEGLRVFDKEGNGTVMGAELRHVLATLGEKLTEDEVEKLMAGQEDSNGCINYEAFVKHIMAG
bovine cardiac myofibrils (full-length cardiac myosin ATPase in the native sarcomere), sequence (Q3SZE5 whole entry partner): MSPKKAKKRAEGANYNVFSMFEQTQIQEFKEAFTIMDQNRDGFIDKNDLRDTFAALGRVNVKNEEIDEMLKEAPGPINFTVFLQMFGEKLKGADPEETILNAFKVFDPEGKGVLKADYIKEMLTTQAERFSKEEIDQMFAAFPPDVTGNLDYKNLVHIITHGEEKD

SMILES | CDMF75 IC15 | IC50
Cc1nc(-c2ccc3c(c2)CCC3NC(=O)c2nnn(C)n2)no1 (centres unmarked) [Compound 64, 2-methyl-N-(5-(5-methyl-1,2,4-oxadiazol-3-yl)-2,3-dihydro-1H-inden-1-yl)-2H-tetrazole-5-carboxamide] | 1.2 µM | 5.1 µM
CCc1nc(-c2ccc3c(c2)CC[C@H]3NC(=O)c2cnccc2C)no1 [Compound 627, (R)-N-(5-(5-ethyl-1,2,4-oxadiazol-3-yl)-2,3-dihydro-1H-inden-1-yl)-4-methylnicotinamide] | 3.5 µM | 15 µM
Cc1cc(-c2ccc3c(c2)OC[C@H]3NC(=O)c2cnn(C)c2)no1 [Compound 426, (S)-1-methyl-N-(6-(5-methylisoxazol-3-yl)-2,3-dihydrobenzofuran-3-yl)-1H-pyrazole-4-carboxamide] | 0.8 µM | 2.6 µM
Cc1cc(C(=O)NC2COc3cc(-c4noc(C(F)F)n4)cnc32)ccn1 (centres unmarked) [Compound 195, N-(6-(5-(difluoromethyl)-1,2,4-oxadiazol-3-yl)-2,3-dihydrofuro[3,2-b]pyridin-3-yl)-2-methylisonicotinamide] | 10.1 µM | > 39.2 µM
CC(C)c1nc(-c2ccc3c(c2)CC[C@H]3NC(=O)C(F)F)no1 [Compound 438, (R)-2,2-difluoro-N-(5-(5-isopropyl-1,2,4-oxadiazol-3-yl)-2,3-dihydro-1H-inden-1-yl)acetamide] | 3.7 µM | 15.8 µM
COCc1nc(-c2ccc3c(c2)OCC3NC(=O)c2cc(C)nn2C)no1 (centres unmarked) [Compound 226, N-(6-(5-(methoxymethyl)-1,2,4-oxadiazol-3-yl)-2,3-dihydrobenzofuran-3-yl)-1,3-dimethyl-1H-pyrazole-5-carboxamide] | 1.2 µM | 4 µM
COC(=O)N[C@@H]1CCc2cc(-c3noc(C(C)C)n3)ccc21 [Compound 307, methyl (R)-(5-(5-isopropyl-1,2,4-oxadiazol-3-yl)-2,3-dihydro-1H-inden-1-yl)carbamate] | 0.6 µM | 2.9 µM
O=C(NC1CCc2cc(-c3noc(C(F)F)n3)ccc21)c1cnc(Cl)s1 (centres unmarked) [Compound 8, 2-chloro-N-(5-(5-(difluoromethyl)-1,2,4-oxadiazol-3-yl)-2,3-dihydro-1H-inden-1-yl)thiazole-5-carboxamide] | 0.4 µM | 1.4 µM

Continued by falling IC50, values first:

CDMF75 IC15 | IC50 | SMILES
5.8 µM | 31.4 µM | Cc1cncc(C(=O)NC2CCc3cc(-c4noc(C(F)F)n4)ccc32)n1 (centres unmarked) [Compound 23, N-(5-(5-(difluoromethyl)-1,2,4-oxadiazol-3-yl)-2,3-dihydro-1H-inden-1-yl)-6-methylpyrazine-2-carboxamide]
3.9 µM | 18.5 µM | Cc1cncc(-c2ccc3c(c2)CC[C@H]3NC(=O)c2ccnn2C)c1 [Compound 376, (R)-1-methyl-N-(5-(5-methylpyridin-3-yl)-2,3-dihydro-1H-inden-1-yl)-1H-pyrazole-5-carboxamide]
2.0 µM | 8.6 µM | CCc1nc(-c2ccc3c(c2)CC[C@H]3NC(=O)c2ccnc(C(C)(C)O)c2)no1 [Compound 610, (R)-N-(5-(5-ethyl-1,2,4-oxadiazol-3-yl)-2,3-dihydro-1H-inden-1-yl)-2-(2-hydroxypropan-2-yl)isonicotinamide]
1.1 µM | 5 µM | COc1cc(C(=O)N[C@@H]2CCc3cc(-c4noc(C(F)F)n4)ccc32)ccn1 [Compound 684, (R)-N-(5-(5-(difluoromethyl)-1,2,4-oxadiazol-3-yl)-2,3-dihydro-1H-inden-1-yl)-2-methoxyisonicotinamide]
1.0 µM | 3.4 µM | [2H]C([2H])([2H])c1nc(-c2ccc3c(c2)CC[C@H]3NC(=O)c2ccnc(C)c2)no1 [Compound 245, (R)-2-methyl-N-(5-(5-(methyl-d3)-1,2,4-oxadiazol-3-yl)-2,3-dihydro-1H-inden-1-yl)isonicotinamide]

Reference: patent publication US12065436B2, “Cardiac sarcomere inhibitors” (Cytokinetics, Inc., priority 2018, dated 2024)
